≈ marks a conversion by molar mass, not a printed value. Numbered stars: 1 amine (or outer) side, 2 acyl side, 3 side chain; on linkers, the order of the positions; unused ones are H or OH. Bridge positions count the residues as written; N and C are the ends. Square brackets hold non-standard residues; d marks the D form. Peptide text beside a SMILES is read from it. * marks the point of attachment. X1 = CCCCCCCCN([C@@H](C)C(=O)[*:2])[*:1]; X4 = CCCCCCCCN([C@H](C)C(=O)[*:2])[*:1]; X2 = CCCCC[C@@H](C)N(CC(=O)[*:2])[*:1]; X6 = CCCCC[C@H](C)N(CC(=O)[*:2])[*:1]; X7 = CCOCCOCCOCCN(CC(=O)[*:2])[*:1]; aIle = CC[C@@H](C)[C@H](N)C(=O)O; N(octyl)Gly = CCCCCCCCNCC(=O)O; aThr = C[C@H](O)[C@H](N)C(=O)O; NMeL = CN[C@@H](CC(C)C)C(=O)O; Octanoyl = CCCCCCCC(=O)*; Propionyl = CCC(=O)*; βAla = NCCC(=O)O
Key:
[1] = target: T1, PaLspA (Pseudomonas aeruginosa, UniProt Q9HVM5); assay: biochemical
T1 construct: made in house
T1 sequence (Q9HVM5 1-169): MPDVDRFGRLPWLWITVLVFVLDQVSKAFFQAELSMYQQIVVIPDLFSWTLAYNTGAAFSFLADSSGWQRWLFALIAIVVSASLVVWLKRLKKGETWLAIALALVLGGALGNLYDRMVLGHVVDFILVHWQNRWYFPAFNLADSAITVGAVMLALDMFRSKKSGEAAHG
Procedure: These analogues were tested for activity against PaLspA using an in vitro fluorescence resonance energy transfer (FRET) activity assay.[21] LspA inhibition was detected by a change in fluorescence upon cleavage of a FRET peptide substrate containing an N-terminal quencher moiety and a C-terminal fluorophore.
(A) Structures of G2a and G2d. (B) Results of the FRET dose–response assays. PaLspA concentration was 40 nM, FRET substrate concentration was 50 μM, and the concentration of inhibitors globomycin, G2a, and G2d ranged from 0–3,000 nM. (C) SDS-PAGE gels and quantitation of the PaLspA gel-shift dose–response assays. ppICP concentration was 12 μM, DOPG concentration was 600 μM, and Lgt concentration was 1.2 μM. The Lgt-catalyzed reaction was allowed to proceed for 60 min at 37 °C, after which inhibitors (0–1000 nM) were added. The PaLspA reaction was initiated by the addition of 100 nM enzyme. The LspA reaction was allowed to proceed for 30 min at 37 °C before being quenched with SDS-PAGE loading buffer (62.5 mM Tris/HCl pH 6.8, 2.5% (w/v) SDS, 0.002% (w/v) bromophenol blue, 0.5 M β-mercaptoethanol, 10% (v/v) glycerol). Quantitation of the gel-shift assays was performed using Image Lab, and data were plotted using GraphPad Prism.
Materials: All reagents were obtained from commercial sources and used without additional purification. All aqueous solutions were prepared using ultrapure laboratory grade water (deionized, filtered, and sterilized) obtained from an in-house ELGA water purification system. […]
Expression and purification of PaLspA, Lgt, EcLspA and ppICP: PaLspA, Lgt and pre-proICP (ppICP) were expressed and purified using previously published protocols (Vogely et al, 2016).[1] EcLspA was expressed and purified as described for PaLspA, with the following modification. The lysis buffer was 50 mM Hepes pH 7.5, 150 mM NaCl, 1 mM TCEP, 10 %(v/v) glycerol. Isolated membranes, containing EcLspA, were solubilized with 1 %(v/v) FC12 for 2 h at […]

[2] = tested on: A. baumannii AB5075; assay: microbe, parasite or virus in culture; format: cell-based, Acinetobacter baumannii; settings: AB5075
Procedure: (§1) MIC values were determined in cation-adjusted Mueller-Hinton broth using the broth microdilution method according to CLSI guidelines. Plates were incubated for 16 to 24 h at 37 °C.
(§2) Six biological replicates were performed across three different 2-fold dilution series, starting at concentration of 100 µg/ml, 80 µg/ml or 64 µg/ml. The lowest concentration of antimicrobial inhibiting growth was taken as the MIC. This was established by visual inspection of the medium after the incubation period with a lack of turbidity of the growth medium indicating no growth.[3] […]

[3] = tested on: A. baumannii AB17978; assay: microbe, parasite or virus in culture; format: cell-based, Acinetobacter baumannii; settings: AB17978
Procedure: as §1, §2

[4] = tested on: P. aeruginosa 950; assay: microbe, parasite or virus in culture; format: cell-based, Pseudomonas aeruginosa; settings: 950
Procedure: as §1, §2

[5] = tested on: E. coli ATCC25922; assay: microbe, parasite or virus in culture; format: cell-based, Escherichia coli; settings: ATCC25922
Procedure: as §1, §2

[6] = tested on: E. coli; format: cell-based
From the text: Initially, a library of six lipid amide analogues was synthesized via cyclization between the side-chain epsilon -NH2 of an N-terminal L-lysine residue and the C-terminus of an L-serine residue.
Each analogue was acylated with a simple linear lipid, ranging from C3 to C8 in length (Figure S1). To further probe the potential of the amide isostere, five additional analogues were synthesized in which the D- or L-stereoisomer of cationic amino acids diaminobutyric acid (Dab), ornithine (Orn), or Lys were used as the N-terminal cyclization partner. Each analogue was acylated with an octanoyl tail and the subsequent effects of ring size and/or stereochemistry, as well as lipid length, determined by assessing antimicrobial activity against E. coli. Peptides were also screened against S. aureus.
Unfortunately, each analogue was unable to […]

[7] = target: T1, PaLspA; assay: Enzyme inhibition assay of rationally designed analogues with PaLspA; format: biochemical; settings: peptide incubated with PaLspA
Procedure: Additionally, C3 – C5 (peptides S5 – S7) and C7-Gbm(NLys) (peptide S9) amide analogues were submitted for enzyme inhibition assays to determine if these cyclic amide isosteres could still inhibit the target enzyme, LspA. Each peptide was incubated with PaLspA and the observed reduction in enzyme activity reported. […]
found for peptides S5 and S9 (C3 and C7-Gbm(NLys). […]
Four linear globomycin analogues were synthesized to determine the necessity of the cyclic core.
The pentapeptide core of NMeLeu-Ile-Ser-Thr-Gly-OH was synthesized as both the natural allo-version and the cheaper non-allo version in which native residues allo-L-isoleucine and allo-L-threonine were replaced by their cheaper non-allo derivatives. Each linear pentapeptide was synthesized in both its acylated, octyl-derivative and non-acylated form and submitted for analysis of its PaLspA inhibitory activity. No PaLspA inhibition was observed, confirming the importance of globomycin’s cyclic core for antimicrobial activity.

Row | MIC [6] | Compound | IC50 [1] | other results
1 | – | CCCCC[C@H](C)N1CC(=O)N(C)[C@@H](CC(C)C)C(=O)N[C@@H]([C@H](C)CC)C(=O)N[C@@H](CO)C(=O)N[C@@H]([C@H](C)O)C(=O)NCCC1=O [G1a] (cyclo([NMeL][aIle]S[aThr][βAla][X6])) | 2.94 ± 0.85 µM | –
2 | – | CCCCC[C@@H](C)N1CC(=O)N(C)[C@@H](CC(C)C)C(=O)N[C@@H]([C@H](C)CC)C(=O)N[C@@H](CO)C(=O)N[C@@H]([C@H](C)O)C(=O)NCCC1=O [G1b] (cyclo([NMeL][aIle]S[aThr][βAla][X2])) | 3.68 ± 0.42 µM | MIC [2]: 25 µg/mL (≈ 38.2 µM); MIC [3]: 16 µg/mL (≈ 24.4 µM); MIC [4]: 32 µg/mL (≈ 48.9 µM); MIC [5]: 32 µg/mL (≈ 48.9 µM)
3 | – | CCCCCCCCN1C(=O)CCNC(=O)[C@H]([C@H](C)O)NC(=O)[C@H](CO)NC(=O)[C@H]([C@H](C)CC)NC(=O)[C@H](CC(C)C)N(C)C(=O)[C@@H]1C [G2a] (cyclo([NMeL][aIle]S[aThr][βAla][X1])) | 0.304 ± 0.062 µM | MIC [2]: 16 µg/mL (≈ 23.4 µM); MIC [3]: 12.5 µg/mL (≈ 18.3 µM); MIC [4]: 32 µg/mL (≈ 46.9 µM); MIC [5]: 32 µg/mL (≈ 46.9 µM)
4 | – | CCCCCCCCN1C(=O)CCNC(=O)[C@H]([C@H](C)O)NC(=O)[C@H](CO)NC(=O)[C@H]([C@H](C)CC)NC(=O)[C@H](CC(C)C)N(C)C(=O)[C@H]1C [G2b] (cyclo([NMeL][aIle]S[aThr][βAla][X4])) | 0.43 ± 0.05 µM | –
5 | – | CCCCCCCCN1CC(=O)N(C)[C@@H](CC(C)C)C(=O)N[C@@H]([C@H](C)CC)C(=O)N[C@@H](CO)C(=O)N[C@@H]([C@H](C)O)C(=O)NCCC1=O [G2c] (cyclo([NMeL][aIle]S[aThr][βAla][N(octyl)Gly])) | 0.92 ± 0.07 µM | –
6 | – | CCOCCOCCOCCN1CC(=O)N(C)[C@@H](CC(C)C)C(=O)N[C@@H]([C@H](C)CC)C(=O)N[C@@H](CO)C(=O)N[C@@H]([C@H](C)O)C(=O)NCCC1=O [G2e] (cyclo([NMeL][aIle]S[aThr][βAla][X7])) | 6.16 ± 0.84 µM | –
7 | > 200 µg/mL | CC[C@@H](C)[C@H](NC(=O)[C@H](CC(C)C)NC)C(=O)N[C@@H](CO)C(=O)N[C@H](C(=O)NCC(=O)O)[C@H](C)O [S1, HN-Globomycin] (H-[NMeL][aIle]S[aThr]G-OH) | – | –
8 | > 200 µg/mL | CC[C@H](C)[C@H](NC(=O)[C@H](CC(C)C)NC)C(=O)N[C@@H](CO)C(=O)N[C@H](C(=O)NCC(=O)O)[C@@H](C)O [S2, Non-alloHN-Globomycin] (H-[NMeL]ISTG-OH) | – | –
9 | > 200 µg/mL | CCCCCCCC(=O)N(C)[C@@H](CC(C)C)C(=O)N[C@H](C(=O)N[C@@H](CO)C(=O)N[C@H](C(=O)NCC(=O)O)[C@H](C)O)[C@H](C)CC [S3, Octanoyl-Globomycin] (Octanoyl-[NMeL][aIle]S[aThr]G-OH) | – | –
10 | > 200 µg/mL | CCCCCCCC(=O)N(C)[C@@H](CC(C)C)C(=O)N[C@H](C(=O)N[C@@H](CO)C(=O)N[C@H](C(=O)NCC(=O)O)[C@@H](C)O)[C@@H](C)CC [S4, Non-alloOctanoyl-Globomycin] (Octanoyl-[NMeL]ISTG-OH) | – | –

Row | Compound | MIC [6] | IC50 [1] | other results
11 | CCC(=O)N[C@H]1CCCCNC(=O)[C@H](CO)NC(=O)[C@H](CO)NC(=O)[C@H]([C@H](C)CC)NC(=O)[C@H](CC(C)C)N(C)C1=O [S5, C3-Globomycin(N-Lys)] (Propionyl-K[NMeL][aIle]SS; lactam 1-C) | > 200 µg/mL | – | reduction in PaLspA enzyme activity (in words) [7]: moderate decrease in enzyme activity
